Laboratory results as given in ChEMBL document CHEMBL1137948, “The design and synthesis of sulfonamides as caspase-1 inhibitors” (Bioorg Med Chem Lett, 2004).

Molecular target: not listed separately
Assay: (§1) Inhibitory activity against caspase-1

| Ki | SMILES |
| --- | --- |
| 18 µM | O=C(O)CC(NC(=O)OCc1ccccc1)C(=O)CNS(=O)(=O)Cc1ccccc1 (centres undefined) |

Molecular target: T1, Caspase-1 (Homo sapiens, UniProt P29466)
T1 sequence (P29466 whole entry): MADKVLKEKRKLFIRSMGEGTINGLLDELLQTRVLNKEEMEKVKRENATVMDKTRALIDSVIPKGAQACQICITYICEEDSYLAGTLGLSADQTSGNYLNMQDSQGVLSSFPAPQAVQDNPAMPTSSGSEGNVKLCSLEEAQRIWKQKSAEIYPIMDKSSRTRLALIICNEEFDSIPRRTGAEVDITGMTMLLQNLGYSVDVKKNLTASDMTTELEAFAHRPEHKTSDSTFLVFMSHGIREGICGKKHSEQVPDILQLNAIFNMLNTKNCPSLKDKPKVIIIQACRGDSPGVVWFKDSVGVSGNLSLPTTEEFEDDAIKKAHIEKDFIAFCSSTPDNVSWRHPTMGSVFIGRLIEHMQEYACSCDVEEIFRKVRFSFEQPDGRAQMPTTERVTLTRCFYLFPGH
Assay: as §1

| IC50 | Ki | SMILES |
| --- | --- | --- |
| 1030 µM | 119 µM | O=C(O)CC(NC(=O)OCc1ccccc1)C(=O)CCCCCc1ccccc1 (centres undefined) |
| 0.0034 µM | 0.004 µM | CC(=O)N[C@@H](Cc1ccc(O)cc1)C(=O)N[C@@H](CCC(=O)O)C(=O)N[C@@H](C)C(=O)NC(CC(=O)O)C(=O)CNS(=O)(=O)CCc1ccccc1 (some centres undefined) |
| 168 µM |  | O=C(O)CC(NC(=O)OCc1ccccc1)C(=O)CNS(=O)(=O)Cc1ccccc1 (centres undefined) |
| 0.976 µM | 0.134 µM | CC(C)[C@H](NC(=O)OCc1ccccc1)C(=O)N[C@@H](C)C(=O)NC(CC(=O)O)C(=O)CCCCCc1ccccc1 (some centres undefined) |
| 0.071 µM | 0.014 µM | CC(=O)N[C@@H](Cc1ccc(O)cc1)C(=O)N[C@H](C(=O)N[C@@H](C)C(=O)NC(CC(=O)O)C(=O)CCCCCc1ccccc1)C(C)C (some centres undefined) |
| 0.0253 µM | 0.0239 µM | C[C@H](NC(=O)[C@H](CCC(=O)O)NC(=O)OCc1ccccc1)C(=O)NC(CC(=O)O)C(=O)CNS(=O)(=O)CCc1ccccc1 (some centres undefined) |
| 0.072 µM | 0.004 µM | CC(C)[C@H](NC(=O)OCc1ccccc1)C(=O)N[C@@H](C)C(=O)NC(CC(=O)O)C(=O)CNS(=O)(=O)CCc1ccccc1 (some centres undefined) |
